Patent publication US20240417371A1, “CANNABIDIOL DERIVATIVE, AND PREPARATION METHOD THEREFOR AND USE THEREOF” (priority 2021, published 2024)

What was measured:
γ-aminobutyric acid = experiment: Content of γ-aminobutyric acid in homogenate of brain tissues of rats (kit method); format: in vivo, Wistar rats; conditions: PTZ rats after 14 days, 100 mg/kg intragastric (positive drug = valproate)
Experimental: (§1) 5. Determination of Contents of γ-Aminobutyric Acid, Glutamic Acid, Glycine, and Aspartic Acid in Rat Brain Tissue by the Kit Method
(§2) The experimental procedures and methods were referred to the kit instructions.
(§3) The contents of excitatory amino acids (glutamic acid and aspartic acid) and inhibitory neurotransmitters (γ-aminobutyric acid and glycine) in the homogenate of brain tissues were determined by an ELISA kit.

[1] = test system: PTZ-kindling epileptic rats; experiment: PTZ-kindling epilepsy model: seizure duration, Ono's grade, latency; format: in vivo, Wistar rats
Experimental: Wistar rats, SPF grade, weighing 240-260 g, aged 6-8 weeks, female, purchased from Shanghai Slac Laboratory Animal Co., Ltd. Feeding environment: the temperature was kept at 22±1° C., and the humidity was kept at 65%-70%, in a 12/12 hour light/dark illumination cycle, with free access to water.
After 1 week of acclimatization of all rats, modeling was started. A 1.75% PTZ solution was prepared with normal saline, and the prepared PTZ solution was injected intraperitoneally at a dose of 35 mg/kg. PTZ was injected once every other day, and behavioral changes of the rats were observed within 30 min after the PTZ injection, and the seizure grade was recorded.
During the experiment, after 11 consecutive injections of PTZ, the seizure grade was recorded. All rats had 5 consecutive recordings of grade 2 or above, and modeling for all rats was successful after 11 consecutive injections of PZT into all rats.
After the modeling was successful, the rats were randomly grouped. Treatment was started. All Wistar rats were weighed and doses for the intragastric administration were calculated.
Before the administration and on day 7 and day 14 after the administration, the prepared PTZ solution was injected intraperitoneally at a dose of 35 mg/kg 1 h after intragastric administration. Behavioral changes of the rats were observed within 30 min after the PTZ injection.
Behavioral seizure indexes before and after the administration were recorded and graded according to Ono's grading. The seizure latency, seizure grade and seizure duration were recorded.

glycine = experiment: Content of glycine in homogenate of brain tissues of rats (kit method); format: in vivo, Wistar rats; conditions: PTZ rats after 14 days, 100 mg/kg intragastric (positive drug = valproate)
Experimental: as §1, §2, §3

Solubility in water = format: physicochemical
Text: ^1[…]=0.8 Hz, 1[…]=7.6 Hz, 2[…]=6.8 Hz, 3H).

glutamic acid = experiment: Content of glutamic acid in homogenate of brain tissues of rats (kit method); format: in vivo, Wistar rats; conditions: PTZ rats after 14 days, 100 mg/kg intragastric (positive drug = valproate)
Experimental: as §1, §2, §3

dopamine = experiment: Content of dopamine in striatum of the model of Parkinson's disease (kit method); format: in vivo, C57/BL6 mice; conditions: MPTP mice; intragastric 100 mg/kg for 14 days (positive drug = amantadine 40 mg/kg)
Text: After the mice were sacrificed quickly, the brains of the mice were taken and the cerebral palliums (CPs) of the mice were isolated. After exposing the brain striatum of the mice, the striatum was weighed and homogenized after adding PBS according to a proportion. The supernatant was isolated and detected for the content of dopamine in the brain striatum.

Bcl-2 = experiment: WB detection of apoptosis-related protein Bcl-2 in hippocampal tissues of PTZ-kindling rats; format: in vivo, Wistar rats; conditions: hippocampus at end of 14-day treatment, 100 mg/kg intragastric
Experimental: (§4) At the end of the experiment, the brains and hippocampi of the laboratory animals were collected and frozen at −80° C.
(§5) 4. WB Detection of Expression of Apoptosis-Related Proteins Bax and Bcl-2 in Hippocampal Tissues of Rats:
(§6) The hippocampal tissue was cut into small pieces, the lysis buffer (protease and phosphatase inhibitors added to the lysis buffer) was added at a ratio of 150-250 μL:20 mg, and the mixture was homogenized with a homogenizer until complete lysis. The sample obtained after the lysis was centrifuged at 12,000 g at 4° C. for 15 min. The supernatant was taken, subjected to protein quantification, and stored in a refrigerator at −80° C.
(§7) • (1) Standard curve plotting: a microplate was taken, and reagents were added according to the table below. […]
(§8) About 25 μg of the protein was loaded into each well, and the loading amount can be increased according to the experiment requirements. According to the results of protein quantification, the required protein was taken and a proper amount of sample loading buffer was added. […]

Bax = experiment: WB detection of apoptosis-related protein Bax in hippocampal tissues of PTZ-kindling rats; format: in vivo, Wistar rats; conditions: hippocampus at end of 14-day treatment, 100 mg/kg intragastric, versus model group
Experimental: as §4, §5, §6, §7, §8

aspartic acid = experiment: Content of aspartic acid in homogenate of brain tissues of rats (kit method); format: in vivo, Wistar rats; conditions: PTZ rats after 14 days, 100 mg/kg intragastric (positive drug = valproate)
Experimental: as §1, §2, §3

C=C(C)[C@@H]1CCC(C)=C[C@H]1c1c(O)cc(CCCCC)cc1OCC(=O)N[C@@H](CCSC)C(=O)[O-].[Na+] [Compound E1]
γ-aminobutyric acid (γ-aminobutyric acid): 771.17 ± 81.98 nmol/g
Ono's grade before treatment ([1]; grade 0-6 (Table 1), baseline before treatment): 3.17 ± 0.41
Ono's grade on day 7 of treatment ([1]; grade 0-6, intragastric 100 mg/kg (positive drug = valproate), day 7): 3.33 ± 0.52
Ono's grade on day 14 of treatment ([1]; grade 0-6, intragastric 100 mg/kg (positive drug = valproate), day 14): 3.33 ± 0.52
Duration on day 7 of treatment ([1]; intragastric 100 mg/kg (positive drug = valproate 100 mg/kg), PTZ 35 mg/kg i.p. 1 h after administration, day 7): 290.50 ± 66.93 s
Duration on day 14 of treatment ([1]; intragastric 100 mg/kg (positive drug = valproate 100 mg/kg), PTZ 35 mg/kg i.p. 1 h after administration, day 14): 299.67 ± 39.25 s
Latency on day 7 of treatment ([1]; intragastric 100 mg/kg (positive drug = valproate), day 7): 82.83 ± 20.90 s
Latency on day 14 of treatment ([1]; intragastric 100 mg/kg (positive drug = valproate), day 14): 87.00 ± 20.96 s
change in duration of seizure on day 14 as compared to day 7 of treatment ([1]; intragastric 100 mg/kg, PTZ-kindling rats): no change in the duration of seizure
Latency before treatment ([1]; latency to seizure after PTZ 35 mg/kg i.p., baseline before treatment): 85.75 ± 21.45 s
Duration before treatment ([1]; seizure duration after PTZ 35 mg/kg i.p., baseline before treatment): 359.83 ± 14.41 s
Glycine (glycine): 0.67 ± 0.07 ng/µg
solubility (Solubility in water): 27 mg/mL
Glutamic acid (glutamic acid): 0.14 ± 0.02 µmol/mg
DA, content of dopamine in striatum after treatment (dopamine): 0.45 ± 0.09 # ng/mg
Bcl-2 protein expression in hippocampal tissues (Bcl-2): significantly higher than that in the model group
Bax protein expression in hippocampal tissues (Bax): significant down-regulation of Bax protein expression
Aspartic acid (aspartic acid): 58.10 ± 11.71 µmol/g
